Measured values from patent publication US9955691B2, “Macrocyclic picolinamides as fungicides” (DOW AGROSCIENCES LLC, priority 2014, dated 2018).

**Q.** Which melting point does the source give for `C[C@@H]1OC(=O)[C@@H](N)COC[C@H](Cc2ccc(C(F)(F)F)cc2)[C@H]1Cc1ccc(OC(F)(F)F)cc1.Cl` here?
**A.** Its melting point is 172 to 175 °C.

**Q.** For `C=C(C)COC[C@@H]1[C@@H](Cc2ccccc2)COC[C@H](NC(=O)OC(C)(C)C)C(=O)O[C@H]1C` [compound 208], which melting point is on record?
**A.** The melting point was 84 to 88 °C.

**Q.** For `C[C@@H]1OC(=O)[C@@H](N)COC[C@H](CC2CCCCC2)[C@H]1CC1CCCCC1.Cl`, which melting point is on record?
**A.** The melting point was 191 to 197 °C (dec.).

**Q.** For `C[C@@H]1OC(=O)[C@@H](N)COC[C@H](Cc2ccc(Cl)cc2)[C@H]1Cc1ccc(OC(F)(F)F)cc1.Cl`, which melting point is on record?
**A.** The melting point was 144 to 148 °C.

**Q.** With `C[C@@H]1OC(=O)[C@@H](N)COC[C@H](CC2CC2)[C@H]1Cc1ccccc1.Cl` as the compound, how does the melting point read?
**A.** The melting point was 189 to 195 °C.

**Q.** With `CC(C)COC[C@@H]1[C@@H](Cc2ccccc2)COC[C@H](N)C(=O)O[C@H]1C.Cl` as the compound, how does the melting point read?
**A.** Its melting point is 196 to 199 °C.

**Q.** For `C[C@@H]1OC(=O)[C@@H](NC(=O)OC(C)(C)C)COC[C@H](Cc2ccccc2)[C@H]1c1ccccc1` [compound 224], which melting point is on record?
**A.** Its melting point is 66 to 71 °C.

**Q.** Which melting point does the source give for `COc1cccc(C[C@H]2COC[C@H](N)C(=O)O[C@@H](C)[C@@H]2Cc2cccc(OC)c2)c1.Cl` here?
**A.** The melting point was 181 to 186 °C (dec.).

**Q.** For `C[C@@H]1OC(=O)[C@@H](NC(=O)OC(C)(C)C)COC[C@H](CC2CCCCC2)[C@H]1CC1CCCCC1` [compound 206], which melting point is on record?
**A.** The melting point was 44 to 50 °C.

**Q.** Which melting point does the source give for `CCC[C@H]1COC[C@H](N)C(=O)O[C@@H](C)[C@@H]1Cc1ccc(F)cc1.Cl` here?
**A.** Its melting point is 184 to 187 °C.

**Q.** Which melting point does the source give for `C[C@@H]1OC(=O)[C@@H](N)COC[C@H](Cc2ccccc2)[C@H]1Cc1ccccc1.Cl` here?
**A.** Its melting point is 196 to 202 °C.

**Q.** For `C[C@@H]1OC(=O)[C@@H](N)COC[C@H](Cc2ccc(Cl)cc2)[C@H]1C1CCCC1.Cl`, which melting point is on record?
**A.** Its melting point is 200 to 203 °C.

**Q.** For `CC(C)C[C@@H]1[C@@H](Cc2ccc(C(F)(F)F)cc2)COC[C@H](N)C(=O)O[C@H]1C.Cl`, which melting point is on record?
**A.** The melting point was 163 to 168 °C.

**Q.** Which melting point does the source give for `CC(C)CC[C@H]1COC[C@H](N)C(=O)O[C@@H](C)[C@@H]1C1CCCC1.Cl` here?
**A.** The melting point was 149 to 153 °C.

**Q.** For `C=C(C)CCC[C@@H]1[C@@H](Cc2ccccc2)COC[C@H](N)C(=O)O[C@H]1C.Cl`, which melting point is on record?
**A.** The melting point was 184 to 187 °C (dec.).

**Q.** With `C=C[C@@H]1[C@@H](Cc2ccccc2)COC[C@H](N)C(=O)O[C@H]1C.Cl` as the compound, how does the melting point read?
**A.** Its melting point is 208 °C (dec.).

**Q.** For `C=C(C)COC[C@@H]1[C@@H](Cc2ccccc2)COC[C@H](NC(=O)c2nccc(OC)c2OCOC(C)=O)C(=O)O[C@H]1C` [compound 11], which melting point is on record?
**A.** The melting point was 35 to 40 °C.

**Q.** For `COc1ccnc(C(=O)N[C@H]2COC[C@H](Cc3ccccc3)[C@@H](c3ccccc3)[C@H](C)OC2=O)c1OCOC(=O)C(C)C` [compound 52], which melting point is on record?
**A.** The melting point was 69 to 73 °C.

**Q.** With `C[C@@H]1OC(=O)[C@@H](N)COC[C@H](CCc2ccccc2)[C@H]1CCc1ccccc1.Cl` as the compound, how does the melting point read?
**A.** The melting point was 184 °C (dec.).
